Read-outs that look alike come from different tables or passages of the source.
Assays:
Aβ42 = assay: Detection of secreted Aβ42 with Biosource ELISA kit in H4 cells expressing APP695; type: cell-based
Protocol: The present invention provides compositions and methods for lowering Aβ42 levels. To test whether compounds and compositions are capable of modulating Aβ levels, a sandwich enzyme-linked immunosorbent assay (ELISA) is employed to measure secreted Aβ (Aβ42 and/or Aβ40) levels. In this example, H4 cells expressing wide type APP695 are seeded at 200,000 cells/per well in 6 well plates, and incubated at 37 degree C. with 5% CO2 overnight. Cells are treated with 1.5 ml medium containing vehicle (DMSO) or a test compound at 1.25 μM, 2.5 μM, 5.0 μM and 10.0 μM (as well as other concentration if desirable) concentration for 24 hours or 48 hours. The supernatant from treated cells is collected into eppendorf tubes and frozen at −80 degree C. for future analysis.
The amyloid peptide standard is reconstituted and frozen samples are thawed. The samples and standards are diluted with appropriate diluents and the plate is washed 4 times with Working Wash Buffer and patted dry on a paper towel. 100 μL per well of peptide standards, controls, and dilutions of samples to be analyzed is added. The plate is incubated for 2 hours while shaking on an orbital plate shaker at RT. The plate is then washed 4 times with Working Wash Buffer and patted dry on a paper towel. Detection Antibody Solution is poured into a reservoir and 100 μL /well of Detection Antibody Solution is immediately added to the plate. The plate is incubated at RT for 2 hours while shaking and then washed four times with Working Wash Buffer and patted dry on a paper towel. Secondary Antibody Solution is then poured into a reservoir and 100 μL /well of Secondary Antibody Solution is immediately added to the plate. The plate is incubated at RT for 2 hours with shaking, washed 5 times with Working Wash Buffer, and patted dry on a paper towel.
100 μL of stabilized chromogen is added to each well and the liquid in the wells begins to turn blue. The plate is incubated for 30 minutes at room temperature and in the dark. 100 μL of stop solution is added to each well and the plate is tapped gently to mix resulting in a change of solution color from blue to yellow. The absorbance of each well is read at 450 nm having blanked the plate reader against a chromogen blank composed of 100 μL each of stabilized chromogen and stop solution. The plate is read within 2 hours of adding the stop solution. The absorbance of the standards is plotted against the standard concentration and the concentrations of unknown samples and controls are calculated.
These compounds were synthesized via the indicated synthetic route. Ab42 IC50 (uM) refers to IC50 value for Ab42 lowering in e.g., the assay described in Example 6.

[1] = clinical trials in AD patients; cited from earlier work
[2] = large prevention trial, patients having mild cognitive impairment; placebo 4.5%; cited from earlier work
[3] = cell based assay described in Example 6, read-out: Ab42 lowering IC50
[4] = Ab42 lowering, cell based assay, read-out: Ab42 IC50

**Q.** With `c1ccc(-c2cc(-c3cc4c(n3-c3cccc(-c5nn[nH]n5)c3)CCc3ccccc3-4)on2)cc1` [Compound 138, 2-(3-phenylisoxazol-5-yl)-3-[3-(2H-tetrazol-5-yl)-phenyl]-4,5-dihydro-3H-benzo[e]indole] as the compound, how does the IC50 (Aβ42; [3]) read?
**A.** Its IC50 is 10 µM.

**Q.** For `O=C(O)c1cccc(-n2c(-c3cc(-c4ccccc4)no3)cc3c2CCc2ccccc2-3)c1` [Compound 139], which IC50 (Aβ42; [3]) is on record?
**A.** The IC50 was 2 µM.

**Q.** Which “efficacy for treating AD” value [1] does the source give for `COc1ccc2cc([C@H](C)C(=O)O)ccc2c1` [Naproxen] here?
**A.** The value was “failed to show efficacy”.

**Q.** Which IC50 (Aβ42; [4]) does the source give for `c1ccc(-c2cc(-c3cc4c(n3-c3cccc(-c5nn[nH]n5)c3)CCc3ccccc3-4)on2)cc1` [drawing 1708, 2-(3-phenylisoxazol-5-yl)-3-[3-(2H-tetrazol-5-yl)-phenyl]-4,5-dihydro-3H-benzo[e]indole] here?
**A.** Its IC50 is 9.6 µM.

**Q.** Which IC50 (Aβ42; [4]) does the source give for `O=C(O)c1cccc(-n2c(-c3cc(-c4ccccc4)no3)cc3c2CCc2ccccc2-3)c1` [drawing 1709] here?
**A.** The IC50 was 2.2 µM.

**Q.** Which IC50 (Aβ42; [4]) does the source give for `c1ccc(-c2cc3c(n2-c2cccc(-c4nn[nH]n4)c2)CCc2ccccc2-3)cc1` [drawing 1720, 2-phenyl-3-[3-(2H-tetrazol-5-yl)-phenyl]-4,5-dihydro-3H-benzo[e]indole] here?
**A.** Its IC50 is 24 µM.

**Q.** Which “efficacy for treating AD” value [1] does the source give for `CS(=O)(=O)c1ccc(C2=C(c3ccccc3)C(=O)OC2)cc1` [rofecoxib] here?
**A.** Its value is “failed to show efficacy”.

**Q.** And the “patients who developed AD” value [2]?
**A.** The value was 6.4%.

**Q.** For `CCC(C)(C)C1CCc2c(cc(-c3ccccc3)n2-c2nc(CC(=O)O)cs2)C1` (stereo not drawn) [{2-[5-(1,1-dimethylpropyl)-2-phenyl-4,5,6,7-tetrahydroindol-1-yl]-thiazol-4-yl} acetic acid], which IC50 (Aβ42; [4]) is on record?
**A.** The IC50 was 6.5 µM.

Source: patent US9034871B2, “Compounds for Alzheimer's disease” (priority 2004, dated 2015)
